Test results as given in US6683079B2, “3-(amino-or aminoalkyl) pyridinone derivatives and their use for the treatment of HIV related diseases” (Centre National de la Recherche Scientifique, priority 1998, dated 2004).

Assays:
HIV-1 strain IIIB = assay: Retrovirucidal effect on HIV-1 strain IIIB (Table 3); assay type: cell-based
Experimental: (§1) HIV-1 viral suspensions were obtained by coculture of MT4 cells and H9 cells chronically infected by HIV-ILai isolate. 200 μl of a cell supernatant containing viral particles (HIV-ILai: 100 TCID50) were incubated at room temperature with various concentrations of different inhibitors. After 3 hours, virions were washed through 0.02 μm anopore membrane in 1.5 mL Vectaspin tube (Whatman) for 10 minutes at 5 000 g. Each of the three subsequent washes was performed in the same conditions after the viral concentrate was refilled with 500 μL of RPMI medium. Then, the viral concentrate was readjusted to the initial volume with RPMI plus 10% foetal calf serum (FCS). The residual infectivity was assayed on P4 cells as described by CHARNEAU et al. (1994, J. Mol. Biol., 241, 651-662). Briefly, P4 cells were plated using 100 μL of DMEM medium plus 10% FCS in 96 plate multi-wells at 20×10^5 cells per mL. After overnight incubation at 37° C., the supernatant was discarded and the viral preparation (200 μL) was added. One day later the wells were washed three times in PBS. Each well was refilled with 200 μL of a reaction buffer containing 50 mM Tris-HCl pH 8.5, 100 mM 2-mercaptoethanol, 0.05% Triton X-100 and 5 mM 4-methylumbelliferyl β-D-galactopyranoside (MUG). After 3 hours at 37° C., the level of the reaction was measured in a fluorescence microplate reader.
(§2) The retrovirucidal effect of each pyridinone derivative listed in table 3 has been assayed according to the teachings of example 2, excepted that the anti-viral effect has been tested on the two following HIV-1 strains:
a) HIV-1 strain IIIB (see example 2);

HIV-1 strain 103 N = assay: Retrovirucidal effect on HIV-1 strain 103 N (Table 3); assay type: cell-based
Experimental: as §1, §2
b) HIV-1 strain 103 N which is a mutant strain bearing a point mutation in the reverse transcriptase gene leading to an enzyme wherein the initial Lys-103 residue is replaced for a Asn residue.
The HIV-1 103 N strain has also been described by SAHLBERG et al.,(1998, Antiviral Res., 37 (3): ASS) and BALZARiNI et al. (1996, Antimicrobial Agents and Chemotherapy, 40 (6): 1454-1466).

[1] = HIV-1 strain 103N (RT Lys-103 to Asn mutant), pIC50=-log IC50, IC50 in M

SMILES	HIV1 pIC50 strain IIIB (HIV-1 strain IIIB; pIC50=-log IC50, IC50 in M)	HIV1 pIC50 strain 103N (HIV-1 strain 103 N; [1])	HIV1 pIC50 strain IIIB (HIV-1 strain IIIB; retrovirucidal effect, pIC50=-log IC50 (M))	HIV1 pIC50 strain 103N (HIV-1 strain 103 N; retrovirucidal effect, HIV-1 strain 103N (Lys-103 to Asn RT mutant), pIC50=-log IC50 (M))
CCc1c(C)[nH]c(=O)c(N(C)C)c1Cc1cccnc1 [Compound 44]	7.889	6.355	–	–
Cc1cc(C)cc(Cc2c3c([nH]c(=O)c2N(C)C)CCCC3)c1 [Compound 173]	8.086	6.489	–	–
CCc1c(C)[nH]c(=O)c(N)c1Cc1ccc(C)cc1 [Compound 8]	4.373	4.39	–	–
CCc1c(C)[nH]c(=O)c(NCc2ccccc2)c1Cc1cc(C)cc(C)c1 [Compound 29]	6.555	5.496	–	–
CCc1c(C)[nH]c(=O)c(N(C)C(C)COC)c1Cc1cc(C)cc(C)c1 (stereo not drawn) [Compound 129]	8.398	7.057	–	–
CCc1c(C)[nH]c(=O)c(N)c1C(=O)c1cccs1 [Compound 177]	5.106	<4	–	–
CCc1c(C)[nH]c(=O)c(N)c1Cc1ccc(Cl)cc1 [Compound 54]	<4	<5	–	–
CCc1c(C)[nH]c(=O)c(N)c1Cc1c(C)cc(C)cc1C [Compound 58]	<4	<5	–	–
CCc1c(C)[nH]c(=O)c(N(C)C)c1Nc1cccc(C)c1 [Compound 176]	8.432	6.436	–	–
Cc1cc(C)cc(Cc2c(C)c(C)[nH]c(=O)c2N(C)C)c1 [Compound 33]	8.42	6.286	–	–
CCc1c(C)[nH]c(=O)c(N)c1Cc1ccc(C(F)(F)F)cc1 [Compound 52]	<4	<5	–	–
CCc1c(C)[nH]c(=O)c(N(C)C)c1C(=O)c1cc(Cl)cc(Cl)c1 [Compound 192]	8.699	8.319	–	–
CCCCNc1c(Cc2cc(C)cc(C)c2)c(CC)c(C)[nH]c1=O [Compound 69]	6.891	5.655	–	–
CCc1c(C)[nH]c(=O)c(N)c1Cc1ccc2ccccc2c1 [Compound 7]	<4	<4	–	–
CCCc1c(C)[nH]c(=O)c(N(C)C)c1Cc1cc(C)cc(C)c1 [Compound 71]	7.777	7.049	–	–
CCc1c(C)[nH]c(=O)c(N(C)CCOC)c1C(=O)c1cccc(C)c1 [Compound 175]	8.921	7.717	–	–
CCc1c(C)[nH]c(=O)c(N(C)C)c1Cc1cc(Cl)cc(Cl)c1 [Compound 191]	8.097	7.553	–	–
Cc1cccc(Cc2c(C)c(C)[nH]c(=O)c2N)c1 [Compound 85]	4.954	<4	–	–
CCc1c(C)[nH]c(=O)c(N(C)C)c1Oc1cc(C)cc(C)c1 [Compound 201]	–	–	8.585	7.231
CCc1c(C)[nH]c(=O)c(N(C)CC(C)C)c1Cc1cc(C)cc(C)c1 [Compound 62]	6.604	5.305	–	–
CCc1c(C)[nH]c(=O)c(NCC(C)C)c1Cc1cc(C)cc(C)c1 [Compound 72]	7.079	<4	–	–
CCc1c(C)[nH]c(=O)c(N(C)C)c1CNc1ncccn1 [Compound 171]	5.895	4.74	–	–
CCc1c(C)[nH]c(=O)c(N(C)C)c1Cc1cc(C)cc(C)c1 [Compound 3]	8.004	7.438	–	–
CCc1c(C)[nH]c(=O)c(N(C)C)c1C(=O)c1ccc(OC)c(C)c1 [Compound 169]	7.101	5.771	–	–
CCCc1cccc(Cc2c(CC)c(C)[nH]c(=O)c2N(C)C)c1 [Compound 104]	8	7.058	–	–
CCc1c(C)[nH]c(=O)c(N)c1Cc1cccc(Cl)c1 [Compound 39]	5	4.751	–	–
CCc1c(C)[nH]c(=O)c(N(C)C)c1C(=O)c1ccc(C)o1 [Compound 158]	8.041	6.625	–	–
